Assay [1] concerns the target T1, 5-HT1A receptor (Rattus norvegicus, UniProt P19327).
T1 construct: rat hippocampal membrane homogenate; from tissue; host or cells: rat hippocampus (membrane homogenate)
T1 sequence (P19327 1-422): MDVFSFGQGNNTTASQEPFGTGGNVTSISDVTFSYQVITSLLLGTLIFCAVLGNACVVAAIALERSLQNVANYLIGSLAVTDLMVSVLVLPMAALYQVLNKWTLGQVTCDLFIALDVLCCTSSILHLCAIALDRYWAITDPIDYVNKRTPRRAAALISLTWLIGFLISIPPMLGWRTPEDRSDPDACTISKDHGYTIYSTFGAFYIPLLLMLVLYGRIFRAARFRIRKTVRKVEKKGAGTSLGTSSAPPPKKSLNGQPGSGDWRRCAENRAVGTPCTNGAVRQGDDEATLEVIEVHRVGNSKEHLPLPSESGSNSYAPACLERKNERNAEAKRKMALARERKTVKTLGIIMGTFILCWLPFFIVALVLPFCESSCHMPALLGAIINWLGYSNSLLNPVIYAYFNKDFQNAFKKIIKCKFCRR
Kind of assay: 5-HT1A receptor binding activity in rat hippocampal membrane homogenate. The protocol: The compounds of the invention are tested for 5-HT1A receptor binding activity in rat hippocampal membrane homogenate by the method of B S Alexander and M D Wood, J Pharm Pharmacol, 1988, 40, 888-891.

Assay [2] concerns the target T2, 5-HT1A receptor (Cavia porcellus, UniProt A0A286Y074).
T2 construct: in the guinea-pig ileum in vitro; from tissue; host or cells: guinea-pig ileum
T2 sequence (A0A286Y074 1-421): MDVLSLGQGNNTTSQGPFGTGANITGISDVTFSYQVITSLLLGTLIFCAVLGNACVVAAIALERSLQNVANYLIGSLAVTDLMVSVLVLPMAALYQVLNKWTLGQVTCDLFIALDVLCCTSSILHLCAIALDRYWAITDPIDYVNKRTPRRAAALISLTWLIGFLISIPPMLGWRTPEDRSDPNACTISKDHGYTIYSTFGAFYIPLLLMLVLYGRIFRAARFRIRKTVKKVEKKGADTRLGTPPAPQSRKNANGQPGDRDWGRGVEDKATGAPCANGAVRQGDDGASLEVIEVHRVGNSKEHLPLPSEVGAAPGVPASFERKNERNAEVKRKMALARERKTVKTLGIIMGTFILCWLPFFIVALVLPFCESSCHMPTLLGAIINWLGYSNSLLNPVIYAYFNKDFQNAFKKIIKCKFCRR
Kind of assay: 5-HT1A receptor antagonism: antagonism of 5-carboxamidotryptamine in guinea-pig ileum in vitro. Particulars: read-out: pA2 (converted). The protocol:
The compounds are tested for 5-HT1A receptor antagonism activity in a test involving the antagonism of 5-carboxamidotryptamine in the guinea-pig ileum in vitro (based upon the procedure of Fozard et al, Br J Pharmac, 1985, 86, 601 P).

Assay [3] relates to α1 sites. Put plainly: affinity for α1 sites (procedure of Marrow et al.). In kind it is binding.

pIC50: −log10 of the molar value.

One may read the pIC50 as the negative decadic logarithm of the IC50, by convention in mol/L. As for `COc1ccccc1C1CCN(CCC(C(=O)N2CCCCCC2)c2ccccc2)CC1` (single isomer, unassigned; (+)) [(+)-enantiomer], the figures for the pIC50 in assay [1] and in assay [3] were 9.70 and 6.60, respectively. Besides, in assay [2], the Kb was 1 nM.
For `COc1ccccc1C1CCN(CCC(C(=O)N2CCCCCC2)c2ccccc2)CC1` (stereo not drawn) [2,3,4,5,6,7-hexahydro-1-(4-(1-(1,2,3,4,5,6-hexahydro-4-(2-methoxyphenyl)pyridyl))-2-phenylbutyryl)-1H-azepine], in that order: 8.92, 5.97 and 0.794 nM.

For the origin of these results see patent publication US5585374A, “Amide derivatives” (John Wyeth Brother, Limited, priority 1992, dated 1996).
